Reference: patent US20220154184A1, “INCREASING GENOME STABILITY AND REPROGRAMMING EFFICIENCY OF INDUCED PLURIPOTENT STEM CELLS” (THE TRUSTEES OF COLUMBIA UNIVERSITY IN THE CITY OF NEW YORK, priority 2019, published 2022)
Values belong to the compound of their own block, whether it stands above or below them.

Experiments:
[1] = test system: wild-type uninfected MEFs; experiment: 53bp1 foci immunofluorescence in uninfected fibroblasts treated with aphidicolin; type: cell-based, mouse; conditions: 0.2 uM aphidicolin for 3 days
Experimental: Detection of […], phospho RPA(S33) and 53bp1 was performed on reprogramming D5 with the following antibodies: Phospho-RPA2Ser33 (Invitrogen #PA5-39809); Anti-phosphoHistone H2A.X-Ser139 (Millipore #05-636); and 53BP1 Antibody H-300 (Santa Cruz #22760). For detection of Rad51, iPS cell lines were irradiated with 10 Gy and stained with Rad51 (Ab-1) Rabbit pAb (Millipore #PC130) 1.5 h post IR.
The DNA damage observed in the form of phosphorylated H2AX during reprogramming can be the result of global epigenetic remodeling (Hernandez et al., 2018), oxidative stress (Ji et al., 2014) or elevated replication stress (Ruiz et al., 2015). To determine the specific type of DNA damage which is most limiting to iPS cell generation, mouse embryonic fibroblasts (MEFs) were treated during reprogramming with the DNA polymerase inhibitor aphidicolin, which induces one-ended double strand breaks (DSBs), processed by HDR (Rothkamm et al., 2003). To test the effect of aphidicolin on primary cells, uninfected wild type fibroblasts were incubated with 0.2 uM aphidicolin for 3 days and noted an increase in the numbers of 53bp1 foci (FIG. 4B).

[2] = test system: mouse embryonic fibroblasts (MEFs); experiment: OSKM reprogramming of MEFs with drug treatment, alkaline phosphatase (AP) staining / sensitivity score; type: cell-based
Experimental: For infection, P1 mouse embryonic fibroblasts (MEFs) were thawed and plated at 1×10^6 cells per 10 cm dish on the previous day. Infection proceeded in two rounds with 8 h to 9 h in between. Briefly, cells were incubated with an OSKM/rtta virus mix (1:1), supplemented with 8 ug/ml protamine sulfate (Fisher Scientific #0219472905). The infection mix was removed on the following day and cells were left to recover in fresh MEF media (DMEM HG Thermo Fisher Scientific #10569010 with 10% FBS Atlanta Biologicals #S11150, Glutamax Thermo Fisher Scientific #35050079 and PenStrep Thermo Fisher Scientific 15140163).
Two days after infection, cells were re-plated for transduction efficiency assessment on day 3, molecular analyses on day 5, colony picking on day 16 and alkaline phosphatase (AP) staining on day 20. In each experiment, infected fibroblasts from the different genotypes were replated at multiple densities to allow for optimal reprogramming efficiency. For wild-type cells, 100-300 cells/mm^2 (20-60K per well of a 24 w dish) routinely generated high numbers of iPS cell clones. Besides for wild-type, 20-60K per well of a 24 w dish was also optimal for the Bard1 point mutants, Brca1^tr/+ and all combination mutations with Smarcal1 or 53bp1; Brca1^tr/tr, 53bp1^−/− as well as the heterozygous or homozygous Smarcal1 and 53bp1 single mutants. […] The remaining Brca1^tr/tr53BP1^+/− genotype was re-plated at 450 cells/mm^2 (90K/well of a 24 w dish). These seeding densities were later used to calculate the reprogramming efficiency of each genotype. The OSKM reprogramming factors were induced with 1 ug/ml doxycycline (Sigma #D9891) in mouse embryonic stem (mES) cell media, consisting of Knockout DMEM (Life Technologies #10829-018), supplemented with 15% Knockout Serum Replacement (Life Technologies #10828-028), Glutamax (Thermo Fisher Scientific #35050079), MEM NEAA (Life Technologies #11140050), PenStrep (Thermo Fisher Scientific 15140163), 2-mercaptoetahnol (Life Technologies #21985-023) and […] LIF (eBioscience #34-8521-82). Transduction efficiency was determined on reprogramming day 3 by staining for Sox2 (Stemgent #09-0024) and used in the calculation of reprograming efficiency. The reprogramming experiments with drug treatment used aphidicolin (Sigma #A0781) at 0.2 uM, Ttpotecan (Sigma #T2705) at 10 nM or the DNA PK inhibitor NU7026 (Tocris #2828) at 5 uM for 8 days during reprogramming.
Alternatively, for the induction of two-ended DSBs, cells were subjected to a single dose of 6 Gy IR 1 day post doxycycline-mediated OSKM factor induction. Cells were fixed on reprogramming day 18-20 and stained for alkaline phosphatase with the Vector Red detection kit (Vector Laboratories #SK-5100). Reprogramming efficiency was determined by considering the number of AP-positive colonies per number of infected cells, determined by Sox2 staining at the optimal plating density for each genotype. The sensitivity score in the experiments with aphidicolin, topotecan and IR was calculated as follows: the reprogramming efficiency of wild-type treated cells was determined as described above and normalized to the reprogramming efficiency of wild type untreated cells. The same procedure was applied to each mutant genotype. The sensitivity score was obtained by calculating the ratio of treated wild type (normalized to untreated wild type) to treated mutant (normalized to untreated mutant). A large score corresponds to high sensitivity.

SMILES: C[C@@]1(CO)[C@H](O)CC[C@@]2(C)[C@H]1CC[C@H]1C[C@@H]3C[C@@]12CC[C@]3(O)CO [aphidicolin]
numbers of 53bp1 foci [1]: increase
sensitivity of reprogramming ([2]; 53bp1^-/- mutants, 0.2 uM aphidicolin for 8 days during reprogramming): less sensitive
reprogramming efficiency compared to the Brca1^tr/tr genotype ([2]; Brca1^tr/tr53bp1^-/- cells, 0.2 uM aphidicolin for 8 days during reprogramming): improvement of reprogramming efficiency
sensitivity of reprogramming (colony numbers relative to wild-type) ([2]; Brca1^tr/tr cells, 0.2 uM aphidicolin for 8 days during reprogramming): pronounced sensitivity
reprogramming efficiency ([2]; wild type cells, 0.2 uM aphidicolin for 8 days during reprogramming): reduced the efficiency of the process

sensitivity of reprogramming ([2]; 53bp1 null cells, 10 nM topotecan for 8 days during reprogramming): reduced sensitivity
sensitivity of reprogramming ([2]; Brca1^tr/tr53bp1^-/- cells, 10 nM topotecan for 8 days during reprogramming): mild sensitivity
reprogramming efficiency ([2]; Brca1^tr/tr cells, 10 nM topotecan for 8 days during reprogramming): greatly reduced efficiency
sensitivity of reprogramming ([2]; wild-type cells, 10 nM topotecan for 8 days during reprogramming): barely sensitive
SMILES: CC[C@@]1(O)C(=O)OCc2c1cc1n(c2=O)Cc2cc3c(CN(C)C)c(O)ccc3nc2-1 [topotecan]

efficiency of reprogramming ([2]; wild type MEFs, 5 uM DNA PK inhibitor for 8 days during reprogramming): no effect
SMILES: O=c1cc(N2CCOCC2)oc2c1ccc1ccccc12 [DNA PK inhibitor, NU7026]
